Tests used:
Assay type in all cases: binding
AalbOBP37 [1] = biological target: T1, AalbOBP37 (Aedes albopictus, UniProt M4VP05); experiment: 1-NPN competitive fluorescence displacement; details: 20 mM sodium acetate, pH 7.4, 25 C; 25 ug/ml protein; ligand 6.4-19.2 uM; 32 uM 1-NPN
T1 construct: 6xHis-tag fusion, pET-22b(+), E. coli BL21 (DE3); Ni-NTA and gel filtration
T1 sequence (M4VP05 19-149 limits assumed): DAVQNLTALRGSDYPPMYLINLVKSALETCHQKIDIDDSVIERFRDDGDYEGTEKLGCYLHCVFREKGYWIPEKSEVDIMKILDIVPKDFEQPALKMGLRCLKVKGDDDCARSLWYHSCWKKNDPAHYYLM

AalbOBP39 [2] = biological target: T2, AalbOBP39 (Aedes albopictus, UniProt M4W733); experiment: 1-NPN competitive fluorescence displacement; details: 20 mM sodium acetate, pH 7.4, 25 C; 25 ug/ml protein; ligand 6.4-19.2 uM; 30.4 uM 1-NPN
T2 construct: 6xHis-tag fusion, pET-22b(+), E. coli BL21 (DE3); Ni-NTA and gel filtration
T2 sequence (M4W733 19-143): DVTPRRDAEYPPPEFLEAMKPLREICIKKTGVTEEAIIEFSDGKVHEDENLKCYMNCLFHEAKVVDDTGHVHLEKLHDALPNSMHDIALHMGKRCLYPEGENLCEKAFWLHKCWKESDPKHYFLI

AalbOBP39 [3] = biological target: T2, AalbOBP39; experiment: direct fluorescence titration; details: 20 mM sodium acetate, pH 7.4, 25 C; 25 ug/ml protein; excitation 337 nm; reporter ligand
AalbOBP37 [4] = biological target: T1, AalbOBP37; experiment: direct fluorescence titration; details: 20 mM sodium acetate, pH 7.4, 25 C; 25 ug/ml protein; excitation 337 nm; reporter ligand

| Structure (SMILES) | normalized 1-NPN fluorescence (AalbOBP37 [1]) | normalized 1-NPN fluorescence (AalbOBP39 [2]) | direct fluorescence titration (AalbOBP39 [3]) | direct fluorescence titration (AalbOBP37 [4]) |
| --- | --- | --- | --- | --- |
| c1ccc2[nH]ccc2c1 [indole] | AalbOBP37 and AalbOBP39 exhibited relatively strong binding to both indole and skatole | AalbOBP37 and AalbOBP39 exhibited relatively strong binding to both indole and skatole |  |  |
| C=CC(O)CCCCC (stereo not shown) [1-octen-3-ol] | AalbOBP37 showed high affinity to DEET and 1-octen-3-ol | AalbOBP39 showed relatively low affinity to DEET and 1-octen-3-ol |  |  |
| c1ccc(Nc2cccc3ccccc23)cc1 [N-phenyl-1-naphthylamine] |  |  | only target OBPs could bind 1-NPN, which showed increasing fluorescent intensity | only target OBPs could bind 1-NPN, which showed increasing fluorescent intensity |
| Cc1c[nH]c2ccccc12 [skatole] | AalbOBP37 and AalbOBP39 exhibited relatively strong binding to both indole and skatole | AalbOBP37 and AalbOBP39 exhibited relatively strong binding to both indole and skatole |  |  |
| CCN(CC)C(=O)c1cccc(C)c1 [DEET] | AalbOBP37 showed high affinity to DEET and 1-octen-3-ol | AalbOBP39 showed relatively low affinity to DEET and 1-octen-3-ol |  |  |
